What was measured:
[1] = test system: MCF7; assay: Anti tumor activity on human breast cancer cell line MDR-positive MCF-7 ADRr after 72 hours of treatment; type: functional, cell-based; conditions: MCF7, 72 h
[2] = test system: MDA-MB-231; assay: cells; type: functional, cell-based; conditions: Homo sapiens, MDA-MB-231, 72 h
Description: Anti tumor activity on human breast cancer cell line MDR-negative MDA-MB 231 after 72 hours of treatment

| Structure (SMILES) | IC50 [1] [nM] | IC50 [2] [nM] |
| --- | --- | --- |
| COc1cc2c(c(OC)c1OC)-c1ccc(SC)c(=O)cc1[C@@H](NC(=O)[C@H](C)N)CC2 | 10000 | 90 |
| COc1cc2c(c(OC)c1OC)-c1ccc(SC)c(=O)cc1[C@@H](NC(=O)CN)CC2 | 10000 | 7.6 |
| COc1cc2c(c(OC)c1OC)-c1ccc(SC)c(=O)cc1[C@@H](NC(=O)[C@@H](NC(=O)C(F)(F)F)c1ccccc1)CC2.COc1cc2c(c(OC)c1OC)-c1ccc(SC)c(=O)cc1[C@@H](NC(=O)[C@H](NC(=O)C(F)(F)F)c1ccccc1)CC2 | 1500 | 24 |
| COc1cc2c(c(OC)c1OC)-c1ccc(SC)c(=O)cc1[C@@H](NC(=O)C(F)(F)F)CC2 | 35 | 1.3 |
| COc1cc2c(c(OC)c1OC)-c1ccc(SC)c(=O)cc1[C@@H](NC(=O)[C@@H](CCSC)NC(=O)C(F)(F)F)CC2.COc1cc2c(c(OC)c1OC)-c1ccc(SC)c(=O)cc1[C@@H](NC(=O)[C@H](CCSC)NC(=O)C(F)(F)F)CC2 | 10000 | 37 |
| COc1cc2c(c(OC)c1OC)-c1ccc(SC)c(=O)cc1[C@@H](NC(=O)[C@@H](N)c1ccccc1)CC2.COc1cc2c(c(OC)c1OC)-c1ccc(SC)c(=O)cc1[C@@H](NC(=O)[C@H](N)c1ccccc1)CC2 | 1700 | 3 |
| COc1cc2c(c(OC)c1OC)-c1ccc(SC)c(=O)cc1[C@@H](NC(=O)[C@@H](C)N)CC2 | 12000 | 150 |
| COc1cc2c(c(OC)c1OC)-c1ccc(SC)c(=O)cc1[C@@H](NC(=O)[C@@H](C)N)CC2.COc1cc2c(c(OC)c1OC)-c1ccc(SC)c(=O)cc1[C@@H](NC(=O)[C@H](C)N)CC2 | 800 | 19 |
| COc1cc2c(c(OC)c1OC)-c1ccc(SC)c(=O)cc1[C@@H](NC(=O)[C@@H](N)CCSC)CC2.COc1cc2c(c(OC)c1OC)-c1ccc(SC)c(=O)cc1[C@@H](NC(=O)[C@H](N)CCSC)CC2 | 20000 | 35 |
| COc1cc2c(c(OC)c1OC)-c1ccc(SC)c(=O)cc1[C@@H](NC(=O)CNC(=O)C(F)(F)F)CC2 | 12000 | 6 |
| COc1cc2c(c(OC)c1OC)-c1ccc(SC)c(=O)cc1[C@@H](NC(=O)[C@@H](C)NC(=O)C(F)(F)F)CC2.COc1cc2c(c(OC)c1OC)-c1ccc(SC)c(=O)cc1[C@@H](NC(=O)[C@H](C)NC(=O)C(F)(F)F)CC2 | 2100 | 12 |
| COc1cc2c(c(OC)c1OC)-c1ccc(OC)c(=O)cc1[C@@H](NC(C)=O)CC2 [COLCHICINE] |  | 1.8 |

From ChEMBL document CHEMBL1132543, “N-deacetyl-N-aminoacylthiocolchicine derivatives: synthesis and biological evaluation on MDR-positive and MDR-negative human cancer cell lines” (J Med Chem, 1999)
